From US11358960B2, “Pyrazol-3-ones that activate pro-apoptotic BAX” (Dana-Farber Cancer Institute, Inc., priority 2011, dated 2022) come the findings set out here.

Experiment [1] relates to DHL5 diffuse large B-cell lymphoma (DLBCL) cells. As to the kind of experiment: DHL5 cell viability assay (CellTiter-Glo). Particulars: for cell viability: single agent, 24 hours. It counts as cell-based. (In general: Cellular ATP, detected with luciferase, serves as a proxy for viable cell number.)
Experiment [2] deals with BCL-XL-dependent leukemia cell line. As to the kind of experiment: Caspase 3/7 and cell death in BCL-XL-dependent leukemia cell line. It counts as cell-based.
Experiment [3] deals with MCL-1 dependent leukemia cell line. Description: Caspase 3/7 and cell death in isogenic MCL-1 dependent leukemia cell line. It counts as cell-based.
For experiment [4], the target named is T1, recombinant full-length BAX (Homo sapiens, UniProt Q07812).
T1 construct: Recombinant and tagless full-length BAX; made in house; host or cells: Escherichia coli BL21 (DE3)
T1 sequence (Q07812 whole entry): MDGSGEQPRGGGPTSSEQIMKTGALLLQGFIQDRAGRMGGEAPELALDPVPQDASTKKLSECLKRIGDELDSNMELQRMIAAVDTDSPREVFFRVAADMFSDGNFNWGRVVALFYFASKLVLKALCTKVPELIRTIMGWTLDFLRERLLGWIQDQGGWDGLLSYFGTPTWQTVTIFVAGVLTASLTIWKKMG
As to the kind of experiment: Competitive fluorescence polarization assay: displacement of FITC-BIM SAHB from BAX. Type of experiment: binding. Particulars: positive control. How it is done:
BCL-2 family protein production. Recombinant and tagless full-length BAX, BCL-XLΔC, MCL-1ΔNΔC, and BFL-1/A1ΔC were expressed and purified as previously reported^17,35. Transformed Escherichia coli BL21 (DE3) were cultured in ampicillin-containing Luria Broth and protein expression was induced with 0.5 mM isopropyl β-D-1-thiogalactopyranoside (IPTG). The bacterial pellets were resuspended in buffer (250 mM NaCl, 20 mM Tris, complete protease inhibitor tablet, pH 7.2), sonicated, and after centrifugation at 45,000×g for 45 min, the supernatants were applied to glutathione-agarose columns (Sigma) for GST-BCL-XLΔC, MCL-1ΔNΔC, and BFL-1/A1ΔC, or a chitin column (BioLabs) for Intein-BAX. On-bead digestion of GST-tagged protein was accomplished by overnight incubation at room temperature in the presence of thrombin (75 units) in PBS (3 mL), whereas the intein tag was cleaved from BAX by overnight incubation of the chitin beads at 4° C. with 50 mM DTT. BCL-XLΔC, MCL-1ΔNΔC, and BFL-1/A1ΔC were purified by size exclusion chromatography (SEC) using 150 mM NaCl, 50 mM Tris, pH 7.4 buffer conditions, and full-length monomeric BAX protein isolated by SEC using a Superdex-75 column (GE Healthcare) and 20 mM Hepes pH 7.2, 150 mM KCl buffer conditions.
(§1) Fluorescence polarization binding assays. Fluorescence polarization assays (FPA) were performed as previously described^35,36.
(In general: Fluorescence polarisation rises when a labelled molecule tumbles more slowly, as on binding a larger partner.)

The next experiment addresses T2, BCL-XL (Homo sapiens, UniProt Q07817).
T2 construct: serial dilutions of full-length BAX, BCL-XLΔC, MCL-1ΔNΔC, or BFL-1/A1ΔC; GST (N, cleaved yes); made in house; host or cells: Escherichia coli BL21 (DE3)
Description: Competitive FPA with FITC-BIM SAHB and BCL-XL. It counts as binding.
From the text: (§2) The BH3 binding pocket of anti-apoptotic targets shares topographic similarities with the BH3 trigger site on BAX, including a hydrophobic groove that engages the hydrophobic face of BH3 helices and a perimeter of similarly oriented charged and polar residues that are complementary to discrete residues of the hydrophilic BH3 interface. The two BH3 binding sites differ in their geographic location, pocket depth, and functionality.
(§3) BCL-2 family protein production. Recombinant and tagless full-length BAX, BCL-XLΔC, MCL-1ΔNΔC, and BFL-1/A1ΔC were expressed and purified as previously reported^17,35. Transformed Escherichia coli BL21 (DE3) were cultured in ampicillin-containing Luria Broth and protein expression was induced with 0.5 mM isopropyl β-D-1-thiogalactopyranoside (IPTG). The bacterial pellets were resuspended in buffer (250 mM NaCl, 20 mM Tris, complete protease inhibitor tablet, pH 7.2), sonicated, and after centrifugation at 45,000×g for 45 min, the supernatants were applied to glutathione-agarose columns (Sigma) for GST-BCL-XLΔC, MCL-1ΔNΔC, and BFL-1/A1ΔC, or a chitin column (BioLabs) for Intein-BAX. […]
as §1

For another experiment, the target named is T3, MCL-1 (Homo sapiens, UniProt Q07820).
T3 construct: serial dilutions of full-length BAX, BCL-XLΔC, MCL-1ΔNΔC, or BFL-1/A1ΔC; GST (N, cleaved yes); made in house; host or cells: Escherichia coli BL21 (DE3)
T3 sequence (Q07820 170-327 limits assumed, species assumed): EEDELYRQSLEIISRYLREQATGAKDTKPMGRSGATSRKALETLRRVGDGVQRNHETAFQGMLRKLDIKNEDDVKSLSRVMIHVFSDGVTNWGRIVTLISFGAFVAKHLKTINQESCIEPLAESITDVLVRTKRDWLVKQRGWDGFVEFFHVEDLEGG
Description: Competitive FPA with FITC-BIM SAHB and MCL-1. It counts as binding.
From the text: as §2, §3, §1

The target in another experiment is T4, BFL-1/A1 (Homo sapiens, UniProt Q16548).
T4 construct: serial dilutions of full-length BAX, BCL-XLΔC, MCL-1ΔNΔC, or BFL-1/A1ΔC; GST (N, cleaved yes); made in house; host or cells: Escherichia coli BL21 (DE3)
T4 sequence (Q16548 1-151 limits assumed): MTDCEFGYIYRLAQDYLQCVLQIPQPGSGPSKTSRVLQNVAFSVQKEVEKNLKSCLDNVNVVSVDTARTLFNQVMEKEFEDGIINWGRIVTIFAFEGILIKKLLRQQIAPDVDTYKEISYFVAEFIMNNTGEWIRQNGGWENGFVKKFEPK
As to the kind of experiment: Competitive FPA with FITC-BIM SAHB and BFL-1/A1. It counts as binding.
From the text: as §2, §3, §1

For experiment [5], the system named is Bak−/− MEFs. As to the kind of experiment: Cell viability assay in Bak-/- MEFs (CellTiter-Glo). It counts as cell-based, mouse. The conditions noted are these: Bak−/− MEFs (express only BAX), 24 hours.
The next experiment has as its system Bax−/−Bak−/− MEFs. As to the kind of experiment: Cell viability assay in Bax-/-Bak-/- MEFs (CellTiter-Glo). Type of experiment: cell-based, mouse. The conditions noted are these: 24 hours.
Experiment [6] relates to Bak−/− MEFs. Description: Light microscopy (live cell imaging) of Bak-/- MEFs. It counts as cell-based, mouse. The conditions noted are these: BAM7 15 μM, time lapse. How it is done:
Light microscopy. MEFs (5,000 cells/well) were plated for 24 hours on glass bottom culture dishes (MatTek Corp., MA) and then incubated with BAM7 (15 μM) or vehicle (0.15% DMSO). Live cell imaging was performed using a TE2000-E2 Nikon microscopy equipped with a temperature and CO2-controlled chamber that maintained an atmosphere of 3-5% humidified CO2 at 37° C. A Hamamatsu Orca ER digital CCD camera was used to capture images at 20× magnification for 24 hours at 20 min intervals. Acquisition, hardware control, and image analysis was performed using Nikon NIS-Elements software.

In a further experiment the test system is leukemia cells. Description: Leukemia cell viability (anti-leukemic activity). The conditions noted are these: FIGS. 15-17. Type of experiment: cell-based.

T2 sequence (Q07817 1-212 limits assumed, species assumed): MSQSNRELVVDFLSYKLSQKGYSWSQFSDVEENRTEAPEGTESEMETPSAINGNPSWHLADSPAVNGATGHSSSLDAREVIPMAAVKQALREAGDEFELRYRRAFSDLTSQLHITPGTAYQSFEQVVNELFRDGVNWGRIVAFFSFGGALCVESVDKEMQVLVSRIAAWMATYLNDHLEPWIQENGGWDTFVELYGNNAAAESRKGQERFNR

Turning to `CN(C)CC[C@H](CSc1ccccc1)Nc1ccc(S(=O)(=O)NC(=O)c2ccc(N3CCN(Cc4ccccc4-c4ccc(Cl)cc4)CC3)cc2)cc1[N+](=O)[O-]` [ABT-737, reference compound], in experiment [1], the cell viability result is listed as “relatively resistant”. The “effect of added ABT-737 on the response to BAM7” value in experiment [1] (subcytotoxic dose of ABT-737 added to BAM7) is “further sensitized the cells to BAM7”. In addition, the cell death entry in [2] is given as “induces cell death”; in experiment [3], “significant resistance”.

Turning to `CC[C@H](C)[C@H](NC(C)=O)C(=O)N[C@@H](Cc1c[nH]c2ccccc12)C(=O)N[C@H](C(=O)N[C@@H](C)C(=O)N[C@@H](CCC(N)=O)C(=O)N[C@@H](CCC(=O)O)C(=O)N[C@@H](CC(C)C)C(=O)N[C@@H](CCCNC(=N)N)C(=O)N[C@@]1(C)CCCC=CCCC[C@@](C)(C(=O)N[C@@H](Cc2ccccc2)C(=O)N[C@@H](CC(N)=O)C(=O)N[C@@H](C)C(=O)N[C@@H](Cc2ccc(O)cc2)C(=O)N[C@@H](Cc2ccc(O)cc2)C(=O)N[C@@H](C)C(=O)N[C@@H](CCCNC(=N)N)C(=O)N[C@@H](CCCNC(=N)N)C(N)=O)NC(=O)[C@H](CC(=O)O)NC(=O)CNC(=O)[C@H]([C@@H](C)CC)NC1=O)[C@@H](C)CC` [Ac-BIM SAHB, reference compound], the IC50 in [4] came to 314 nM; at BCL-XL (competitive FPA, read-out: IC50, competition with FITC-BIM SAHB for binding to BCL-XL), 572 nM; on MCL-1 (competitive FPA, read-out: IC50, competition with FITC-BIM SAHB for binding to MCL-1), 136 nM; at BFL-1/A1 (competitive FPA, read-out: IC50, competition with FITC-BIM SAHB for binding to BFL-1/A1) it was 603 nM.

As to `CCOc1ccccc1NN=C1C(=O)N(c2nc(-c3ccccc3)cs2)N=C1C` [BAM7, 4-(2-(2-ethoxyphenyl)hydrazono)-3-methyl-1-(4-phenylthiazol-2-yl)-1H-pyrazol-5(4H)-one], the “competition with FITC-BIM SAHB for BCL-XL (in words)” value at BCL-XL (up to 50 μM dosing) was “little to no anti-apoptotic binding interactions”. Besides, the “competition with FITC-BIM SAHB for MCL-1 (in words)” value on MCL-1 (up to 50 μM dosing) is given as “little to no anti-apoptotic binding interactions”. The “competition with FITC-BIM SAHB for BFL-1/A1 (in words)” value at BFL-1/A1 (up to 50 μM dosing) was “little to no anti-apoptotic binding interactions”. The cell viability entry is on record as “dose-responsively impaired the viability” in the experiment with Bak−/− MEFs [5], “did not affect the viability” with Bax−/−Bak−/− MEFs and “dose-responsive impairment of cell viability” in [1]. Moreover, in the experiment with Bak−/− MEFs [6], the “morphologic features of apoptosis” value is “characteristic microscopic features of apoptosis”. Further, in experiment [1] (BAM7 10 μM plus ABT-737), the “effect of BAM7 on the response to ABT-737” value is on record as “sensitized DHL5 cells to ABT-737”. Further, in the experiment with leukemia cells, the anti-leukemic activity result is on record as “anti-leukemic activity”.
